One experiment addresses T1, succinate dehydrogenase (Botrytis cinerea, UniProt A0A384J5E4+A0A384J8V8+A0A384JHJ5).
T1 construct: succinate-DCPIP reductase assay with KCN
The experiment can be described thus: Enzyme inhibition: succinate dehydrogenase activity in Botrytis cinerea mitochondria (DCPIP reduction). The class given is biochemical. The following applies: concentration required to inhibit the rate of DCPIP reduction by 50%; Botrytis cinerea isolate Nick mitochondria; read-out: I50 (μM conc.). The procedure:
Mitochondria were isolated by a method adapted from G.A. White [Biochem. Biophys. Res. Commun. 44: 1212, 1971]. Twenty to thirty grams of Botrytis cinerea isolate Nick were resuspended in 250 mL 0.25M sucrose, 5mM Na4 EDTA, pH 7.0 (+) 0.15% (w/v) bovine serum albumin (BSA) and placed in a Bead Beater chamber (Biospec Products, Bartlesville, Ok.). Zirconium oxide beads (0.5mm) were added to finish filling the chamber. Four 30 second beats separated by 2 minute temperature equilibration periods in the cold were used to break the mycelia. A crude mitochondrial preparation was harvested from the homogenate by differential centrifugation at 4° C. and resuspended in BSA-free sucrose/EDTA media and used for SDH assays.
The succinate dehydrogenase activity was measured at 600 nm in 50 mM potassium phosphate, pH 7.2, 1 mM KCN, 45 μM 2,6-dichlorophenolindophenol (DCPIP) and 17 mM disodium succinate (final volume, 1 mL) with a Perkin-Elmer Lambda 7 ultraviolet-visible spectrophotometer. The test compounds were added as acetone solutions (final concentration of acetone, 1% (v/v)). The mitochondrial preparatons were used to initiate the reaction. All rates were corrected for endogenous activities minus succinate. Semilog plots of percentage inhibition versus test compound concentration were used to determine inhibition expressed as I50 (μM) which is the concentration required to inhibit the rate of DCPIP reduction by 50%. The commercial fungicide carboxin was used as standard throughout.

In experiment [1] the test system is Botrytis cinerea. The experiment can be described thus: Eggplant grey mold. Format: in vivo. Details: scale not given here. Conditions: inoculated 24 h later, rated after 3-4 days; for Disease Control Rating at 20 ppm: eggplant sprayed with 20 ppm; for Disease Control Rating at 100 ppm: eggplant sprayed with 100 ppm; for Disease Control Rating at 500 ppm: eggplant sprayed with 500 ppm. The procedure:
Eggplant seed are planted in 2.25" square pots, six per pot, and maintained in growth chambers set at 23° C., 80% humidity, and 12 h photoperiod. When the plants are at the cotyledon stage (14-18 days afterplanting), the plants are sprayed with 1.5 mL/pot of 500, 100 or 20 ppm 2:3 acetone:water (with 0.5% Tween® 20) formulations of the test compounds.
Twenty-four hours later the plants are inoculated with Botrytis cinerea, approximately 0.5 mL/pot of a 4×10^6 spore/mL suspension. The plantes are incubated at 23° C. and 100% humidity for 3-4 days, at which time disease control ratings are made based on presence and severity of Botrytis lesions.

Experiment [2] concerns Botrytis cinerea. The experiment can be described thus: Vine grey mold (grape berries). Format: in vivo. The following applies: average of six berries, 7-10 days; for pest or weed control at 50 ppm: grape berries treated with 50 ppm, read-out: % DISEASE CONTROL 50 ppm; for pest or weed control at 200 ppm: grape berries treated with 200 ppm, read-out: % DISEASE CONTROL 200 ppm. The method, then:
Grape berries, which have been washed and surfaced sterilized in 70% ethanol for one minute, are, except for the negative controls, treated with 0.2 mL of a 2:3 acetone/water formulation (containing 0.05% Tween® 20) of 200 or 50 ppm of the test compounds and placed one per well in 12-well plates. Six berries per treatment level are used. Twenty-four hours later each berry is inoculated with Botrytis cinerea conidia, 0.2 mL of 10^6 spores/mL suspension. The plates are incubated at 20° C. with a 12 hours photoperiod for 7-10 days and the percent surface area infected with the disease is determined for each replicate using the values of 0, 1, 2, 5, 7, 10, 15, 20, 25, 30, 35, 40, 45, 50, 55, 60, 65, 70, 75, 80, 85, 90, 95, and 100%. Treatment means are calculated and percent disease control is determined by the formula [(control mean - treatment mean)/control means]×100.
Some of the compounds have been tested more than once and the results shown are the average of the number of tests reported.

The test system of the next experiment is Rhizoctonia solani. The experiment is described as follows: Rice sheath blight. Format: in vivo. The following applies: inoculated two days later, rated after 7 days, average of five plants; for Disease Control Rating at 0.02 mg/mL: foliage and soil sprayed with 0.02 mg/mL; for Disease Control Rating at 0.1 mg/mL: foliage and soil sprayed with 0.1 mg/mL; for Disease Control Rating at 0.5 mg/mL: foliage and soil sprayed with 0.5 mg/mL. Details: scale not given here. The procedure:
Rice plants, 11 to 15 days old, are grown in 7.65 cm^2 pots. Each plant in the treatment groups is treated by spraying both the foliage and the soil surface, each with 2 mL of a water/acetone/Tween®20 formulation containing 0.5, 0.1, or 0.02 mg/mL of Compound A. The pots are placed in flood trays which are filled with water to just below the soil line. Two days later, approximately two grams of Rhizoctonia solani inoculum, cultured on rice grain for four to eight weeks, is applied to the base of the rice plants in each pot. After 7 days in a 25° C. high humidity growth chamber, each plant is evaluated for the level of disease contro as compared to untreated controls by the following scale and the average of five plants per treatment level is calculated.

Consider seven compounds from patent publication US5223526A, “Pyrazole carboxanilide fungicides and use” (Monsanto Company, priority 1992, dated 1993).

T1 sequence (A0A384J5E4 1-300): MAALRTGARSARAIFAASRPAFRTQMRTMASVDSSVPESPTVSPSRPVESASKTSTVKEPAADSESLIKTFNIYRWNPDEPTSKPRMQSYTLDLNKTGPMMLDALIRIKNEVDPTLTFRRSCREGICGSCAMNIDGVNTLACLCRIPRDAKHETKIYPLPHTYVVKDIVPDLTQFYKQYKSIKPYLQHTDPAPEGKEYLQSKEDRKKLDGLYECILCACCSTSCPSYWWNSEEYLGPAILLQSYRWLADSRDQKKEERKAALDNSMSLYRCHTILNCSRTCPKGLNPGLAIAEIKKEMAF
T1 sequence (A0A384J8V8 1-189): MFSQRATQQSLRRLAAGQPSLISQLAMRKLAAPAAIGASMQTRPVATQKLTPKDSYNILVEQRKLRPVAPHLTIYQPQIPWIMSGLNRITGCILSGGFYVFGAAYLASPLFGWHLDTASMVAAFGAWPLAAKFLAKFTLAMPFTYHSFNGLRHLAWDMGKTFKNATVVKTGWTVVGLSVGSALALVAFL
T1 sequence (A0A384JHJ5 1-192): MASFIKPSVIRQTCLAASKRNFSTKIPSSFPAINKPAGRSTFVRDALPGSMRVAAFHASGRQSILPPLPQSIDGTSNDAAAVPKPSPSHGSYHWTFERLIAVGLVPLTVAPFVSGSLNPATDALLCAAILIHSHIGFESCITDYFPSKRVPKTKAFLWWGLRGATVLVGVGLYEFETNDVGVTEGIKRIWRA
T1 sequence (A0A384K456 1-647 partner): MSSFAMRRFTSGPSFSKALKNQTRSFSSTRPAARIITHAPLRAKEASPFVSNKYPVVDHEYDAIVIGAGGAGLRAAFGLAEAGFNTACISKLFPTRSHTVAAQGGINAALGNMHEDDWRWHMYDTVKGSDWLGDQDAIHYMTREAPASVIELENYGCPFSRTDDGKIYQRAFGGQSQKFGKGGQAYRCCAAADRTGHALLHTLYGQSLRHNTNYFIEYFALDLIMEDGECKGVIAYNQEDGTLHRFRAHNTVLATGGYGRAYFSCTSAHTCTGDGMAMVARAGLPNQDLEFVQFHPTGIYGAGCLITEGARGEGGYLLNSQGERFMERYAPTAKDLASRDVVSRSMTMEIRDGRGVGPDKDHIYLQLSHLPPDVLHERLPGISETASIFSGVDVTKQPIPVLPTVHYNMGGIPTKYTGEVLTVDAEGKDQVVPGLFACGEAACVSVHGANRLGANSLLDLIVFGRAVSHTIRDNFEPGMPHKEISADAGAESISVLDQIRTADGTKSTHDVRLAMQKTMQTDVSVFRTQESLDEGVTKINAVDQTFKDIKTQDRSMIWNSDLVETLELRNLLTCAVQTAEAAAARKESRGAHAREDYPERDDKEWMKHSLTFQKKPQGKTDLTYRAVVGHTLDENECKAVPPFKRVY

As for `CC1=C(c2ccccc2NC(=O)c2cn(C)nc2C(F)(F)F)CCC1` [Example 137, 1H-pyrazole-4-carboxamide, 1-methyl-N-[2-(2-methyl-1-cyclopenten-1-yl)phenyl]-3-(trifluoromethyl)-], the IC50 on succinate dehydrogenase was found to be 0.02 µM. Also, in the experiment with Botrytis cinerea [1], the “Disease Control Rating at 20 ppm” value came out at 1, the “Disease Control Rating at 100 ppm” value is 3 and the “Disease Control Rating at 500 ppm” value was found to be 3. Further, in the experiment with Botrytis cinerea [2], the pest or weed control at 50 ppm stood at 83% and the pest or weed control at 200 ppm stood at 100%. Besides, in the experiment on Rhizoctonia solani, the “Disease Control Rating at 0.02 mg/mL” value came out at 1, the “Disease Control Rating at 0.1 mg/mL” value stood at 2 and the “Disease Control Rating at 0.5 mg/mL” value is 3.
For the compound `Cn1cc(C(=O)Nc2ccccc2C2CCCCCC2)c(OC(F)F)n1` [Example 60], the IC50 on succinate dehydrogenase came out at 0.35 µM. For the same compound, the “Disease Control Rating at 500 ppm” value in the experiment on Botrytis cinerea [1] turned out to be 0. Besides, in the experiment with Botrytis cinerea [2], the pest or weed control at 50 ppm came out at 0% and the pest or weed control at 200 ppm was found to be 0%. The “Disease Control Rating at 0.5 mg/mL” value with Rhizoctonia solani came out at 0.
For `Cn1cc(C(=O)Nc2ccccc2[C@@H]2C[C@H]3CC[C@@H]2C3)c(C(F)F)n1` (relative stereo) [Example 26, 1H-pyrazole-4-carboxamide, N-(2-bicyclo[2.2.1]hept-2-ylphenyl)-3-(difluoromethyl)-1-methyl-, exo-], on succinate dehydrogenase, the IC50 is 0.0017 µM. In the experiment on Botrytis cinerea [1], the “Disease Control Rating at 20 ppm” value is on record as 1, the “Disease Control Rating at 100 ppm” value was determined as 2 and the “Disease Control Rating at 500 ppm” value came out at 1. Moreover, in the experiment on Botrytis cinerea [2], the pest or weed control at 50 ppm turned out to be 97% and the pest or weed control at 200 ppm came out at 100%. For the same compound, the “Disease Control Rating at 0.5 mg/mL” value in the experiment with Rhizoctonia solani was 1.
Consider `Cn1cc(C(=S)Nc2ccccc2C2CCCCC2)c(C(F)F)n1` [Example 77, 1H-pyrazole-4-carbothioamide, N-(2-cyclohexylphenyl)-3-(difluoromethyl)-1-methyl], for which, at succinate dehydrogenase, the IC50 came out at 22 µM. For the same compound, in the experiment with Botrytis cinerea [1], the “Disease Control Rating at 20 ppm” value amounted to 0, the “Disease Control Rating at 100 ppm” value was 1 and the “Disease Control Rating at 500 ppm” value was determined as 2. In the experiment on Botrytis cinerea [2], the pest or weed control at 50 ppm was determined as 85% and the pest or weed control at 200 ppm was 82%. The “Disease Control Rating at 0.5 mg/mL” value in the experiment with Rhizoctonia solani was 0.
For the compound `COc1ccc(C2CCCCCCC2)c(NC(=O)c2cn(C)nc2C(F)(F)F)c1` [Example 38, 1H-pyrazole-4-carboxamide, N-(2-cyclooctyl-5-methoxyphenyl)-1-methyl-3-(trifluoromethyl)-], at succinate dehydrogenase, the IC50 amounted to 0.014 µM. Also, in the experiment with Botrytis cinerea [1], the “Disease Control Rating at 20 ppm” value is reported as 0, the “Disease Control Rating at 100 ppm” value amounted to 2 and the “Disease Control Rating at 500 ppm” value is recorded as 2. In addition, in the experiment on Botrytis cinerea [2], the pest or weed control at 50 ppm was determined as 0% and the pest or weed control at 200 ppm stood at 14%. Moreover, in the experiment with Rhizoctonia solani, the “Disease Control Rating at 0.02 mg/mL” value is 0, the “Disease Control Rating at 0.1 mg/mL” value worked out at 0 and the “Disease Control Rating at 0.5 mg/mL” value is 1.
Take `Cc1ccccc1NC(=O)c1c(C)nn(C)c1C` [Compound H, N-(2-methylphenyl)-1,3,5-(trimethyl)-4-pyrazolecarboxamide, reference compound]: the IC50 on succinate dehydrogenase was 475 µM. Moreover, the “Disease Control Rating at 500 ppm” value in the experiment on Botrytis cinerea [1] stood at 0. Further, in the experiment on Botrytis cinerea [2], the pest or weed control at 50 ppm stood at 5% and the pest or weed control at 200 ppm turned out to be 9%. The “Disease Control Rating at 0.5 mg/mL” value with Rhizoctonia solani is given as 0.
In the case of `COc1ccc(C2CCCCC2)c(NC(=O)c2cn(C)nc2C(F)(F)F)c1` [Example 32, 1H-pyrazole-4-carboxamide, N-(2-cyclohexyl-5-methoxyphenyl)-1-methyl-3-(trifluoromethyl)-], at succinate dehydrogenase, the IC50 amounted to 0.11 µM. Also, in the experiment on Botrytis cinerea [1], the “Disease Control Rating at 20 ppm” value turned out to be 0, the “Disease Control Rating at 100 ppm” value is recorded as 1 and the “Disease Control Rating at 500 ppm” value worked out at 2. In addition, in the experiment with Botrytis cinerea [2], the pest or weed control at 50 ppm turned out to be 6% and the pest or weed control at 200 ppm stood at 5%. Also, the “Disease Control Rating at 0.5 mg/mL” value with Rhizoctonia solani turned out to be 0.
